From patent US8465921B2, “Hybridization and mismatch discrimination using oligonucleotides conjugated to minor groove binders” (Elitech Holding B.V., priority 1995, dated 2013) come the findings set out here.

By Tm is commonly meant the temperature at the midpoint of the melting transition.

Some results are limits rather than exact numbers.

The subject of data set [1] is complementary oligonucleotide. Briefly: Thermal denaturation of hybrids of ODNs and MGB-ODN conjugates with their complements (Table 6). Type of data set: binding. The note with it: 2 μM ODN, 1:1 with complement; 140 mM KCl, 10 mM MgCl2, 20 mM HEPES-HCl (pH 7.2); 0.5° C./min. As for the experimental part: Hybrids formed between MGB-oligonucleotide conjugates or unmodified oligonucleotides and their complements were melted at a rate of 0.5° C./min in 140 mM KCl, 10 mM MgCl2 and 20 mM HEPES-HCl (pH 7.2) on a Lambda 2S (Perkin Elmer) spectrophotometer with a PTP-6 automatic multicell temperature programmer. Each oligonucleotide (2 μM) was mixed with sufficient complementary oligonucleotide to give a 1:1 ratio. Prior to melting, samples were denatured at 100° C. and then cooled to the starting temperature over a 10 min period. The melting temperatures (Tm) of the hybrids were determined from the derivative maxima and collected in Table 6. In the “sequence” column of Table 6, MGB refers to the presence of CDPI3 conjugated through a hexylamine linker esterified to the 5′-phosphate group of the oligonucleotide (see FIG. 2).

Data set [2] has as its system E. coli supF gene contained in the plasmid pSP189. As to the kind of experiment: Hydrolyzable probe assay with ppG-substituted 15-mer probe (Example 3). Type of data set: biochemical. The note with it: annealing/elongation at 75° C. (FIG. 6). The source says:
Further increases in discriminatory ability of a MGB-oligonucleotide conjugate are obtained when the conjugate also contains a pyrazolo[3,4-d]pyrimidine nucleotide analogue. In this system, the target sequence is located in the E. coli supF gene contained in the plasmid pSP189 (FIG. 5, SEQ ID No.: 40). See Parris et al. (1992) Gene 117: 1-5. Binding sites for the primers used for amplification are indicated as Primer 1 and Primer 2, with Primer 1 having a sequence and polarity that is identical to that shown in FIG. 5, and Primer 2 having a sequence and polarity that is the reverse complement to that shown in FIG. 5. A 15-mer probe, labeled with fluorescein at the 5′-end, and with TAMRA and CDPI3 at the 3′-end, was designed to be complementary to a region within the approximately 375 nucleotides between the primers, as indicated in FIG. 5. This probe was tested using a series of templates, each containing a different single-nucleotide mismatch with the probe sequence, as shown in FIG. 5 and described infra.
The 15-nucleotide region of the template that is complementary to the probe used in this study was modified to generate a series of point mutations, as shown in FIG. 5. Each of the mutant templates was used in a separate assay with the 15-mer probe. The mutant sequences within this region of the template were as follows, with the mismatched nucleotide indicated by bold underlining: […]

Data set [3] concerns HIA DQβ1 0302 allele in BSM cells. As to the kind of experiment: Sequence-specific alkylation of a gene in cultured human cells (cell culture crosslinking, LM-PCR). Type of data set: cell-based.
For data set [4], the system named is exact complement. As to the kind of experiment: Tm of 8-mer oligonucleotides with varying A + T content, with and without MGB (Table 11). Type of data set: binding. To be noted: MGB-conjugated 8-mer hybridized with its exact complement. As for the experimental part: Short oligonucleotides of differing A+T content, conjugated to a MGB, were used to investigate the effect of base composition on Tm for MGB-short oligonucleotide conjugates (Table 11). Tms were determined on a Perkin Elmer) λ2S UV/VIS spectrophotometer, equipped with a PTP-6 temperature controller, using the PECSS software package.

For data set [5], the system named is long single stranded DNA template. As to the kind of experiment: Primer extension experiment (blockage of T7 DNA polymerase by ODN). The note with it: template 5×10^−10 M, primer 4×10^−8 M, blocking ODN 10^−9 M; 15 min at 45° C.; denaturing gel. Type of data set: biochemical. On the procedure: In this experiment, primer extension occurs with the enzyme T7 DNA polymerase that works from the 5′ end of a template strand. A 16-mer ODN-MGB which was complementary in the Watson Crick sense to a target sequence on the template strand was incubated with a long single stranded DNA template and the T7 DNA polymerase enzyme. […] The minor groove binder was the pyrroloindole tripeptide shown in this application in Table 5. When there was a single mismatch in the sequence specificity of the 16-mer to the target, primer extension was not blocked. Primer extension Was also not blocked when the minor groove binder moiety was attached to the 3′ end of the 16-mer. Primer extension was also not blocked when the sequence specific 16-mer and the free minor groove binder molecule (Compound 3d, not covalently attached to the ODN) was incubated with the template and the enzyme. […] (See Nucleic Acid Research (1993) 21: 5332-5336).
Primer extension reactions were performed as previously described by Lee, et al., (1994) Biochemistry 33: 6024-6030. The final concentrations of template, primer and blocking ODMs were 5×10^−10 M, 4×10^−8 M and 10^−9 M, respectively. Primer extension was carried out for 15 min at 45° C. and the products were analyzed by denaturing gel electrophoresis as described in the reference. […]

For “1 (DNA ATAAAACAGAGGTGAG; DNA, backbone not given here) [compound 1]”, the Tm in data set [1] turned out to be 45 °C.
On the same count and under the same terms, to “2 (DNA ATAAAACAGAGG; DNA, backbone not given here) [compound 2]” belongs 39 °C.
In the case of “3 (DNA ATAAAACAGA; DNA, backbone not given here) [compound 3]”, the Tm in data set [1] stood at 24 °C.
Turning to “4 (DNA TAATAACGTTCGGGCA; DNA, backbone not given here) [compound 4]”, the Tm in data set [1] stood at 50 °C.
The same measure, in the same setting: with “5 (DNA ATAACG; DNA, backbone not given here) [compound 5]” the figure was 16 °C.
On to “5'-GGGTTCCCGAGCGGC (chemistry not fully specified) [MGB-conjugated 15-mer, 5′-fluorescein, 3′-TAMRA and CDPI3 probe, all guanine residues replaced by ppG]”, for which, in data set [2], the “generation of signal with single-base mismatch” value was “completely suppressed” and the “level of signal with perfect match” value is “no effect on the level of signal”.
For the substance “5′-GGTTATTTTTGAAGATACGAATTTCUCCAGAGACACAGCAGGATTTGTCA-CDPI3 [CDPI3-containing 50-mer]”, in data set [3] (1-50 μM, […], LM-PCR, sequencing gel), the “alkylation of the targeted site” value was “had bound to and alkylated the targeted site”. In data set [3] ([…] at 37° C.), the “efficiency of sequence specific alkylation of the 0302 allele versus the same ODN without the MGB” value came to 10 fold.
For “5′-MGB-CAATAATA: 8-mer MGB-oligonucleotide conjugate”, in data set [4], the Tm + MGB was determined as 45 °C.
Consider “8 (DNA CGGGCAAA; DNA, backbone not given here) [compound 8]”, for which the Tm in data set [1] was found to be 25 °C.
On the same count and under the same terms, with “9 (DNA CGGGCAAAGGATTTAA; DNA, backbone not given here) [compound 9]” the figure was 47 °C.
Same read-out and setting: to “10 (DNA GGCAAA; DNA, backbone not given here) [compound 10]” belongs less than 17 °C; to “11 (DNA CGGCTCTA; DNA, backbone not given here) [compound 11]”, 23 °C.
Still for that read-out and setting: with “12 (DNA CGGCTCTAATCTATTA; DNA, backbone not given here) [compound 12]” the figure was 43 °C; with “13 (DNA TATTTTAGATAACCTT; DNA, backbone not given here) [compound 13]”, 34 °C.
On to “[3-carbamoyl-1,2-dihydro-3H-pyrrolo[3,2-e]indole-7-carbox]-1-amido-3-propanol Trmer [Compound 3d]”, for which the “blockage of primer extension by T7 DNA polymerase” value in data set [5] was “not blocked”.
